According to patent publication US20230295133A1, “PROCESS FOR PREPARING A COMPOUND USEFUL TO TREAT MYCOSES” (PULMOCIDE LIMITED, priority 2014, published 2023):
Values after ≈ are worked out from the molar mass of the structure shown.

Columns and labels:
[1] = tested on: aspergillus fumigatus infection of BEAS2B cells; assay: Aspergillus fumigatus infection of bronchial epithelial cells (GM in supernatant); type: cell-based; settings: bronchial epithelial cells infected with Aspergillus fumigatus; read-out: MIC50 Infection of BEAS2B cells
Description: BEAS2B cells were seeded in 96-well plates (100 µL; 30,000 cells / well; Catalogue No 3596, Sigma Aldrich, Dorset, UK) in 10% FBS RPMI-1640 and were then incubated (37° C., 5% CO2) for one day before experimentation. Test compounds (0.5 µL DMSO solution) or vehicle (DMSO) were added to each well to give a final DMSO concentration of 0.5%. BEAS2B cells were incubated with test compounds for 1 hr (35° C., 5% CO2) before infection with aspergillus fumigatus (20 µL; Public Health England) conidia suspension (0.5×10^5 /ml in 10% FBS RPMI-1640). The plate was incubated for 24 hr (35° C., 5% CO2). Supernatant (50 µL) was collected and transferred to a PCR plate (Catalogue No L1402-9700, Starlab, Milton Keynes, UK), which was frozen (-20° C.) until use. After thawing, supernatant (5 µL) was diluted 1:20 by adding R7-PBS solution (95 µL; 1:4 R7 to PBS; Bio-Rad Laboratories, Redmond, WA, USA). GM levels in these samples (50 µL) were measured using Platelia GM-EIA kits (Bio-Rad Laboratories, Redmond, WA, USA). The percentage inhibition for each well was calculated and the IC50 value was calculated from the concentration-response curve generated for each test compound.

[2] = Cell viability: resazurin assay; type: cell-based, human; settings: human, BEAS2B cells; n = 3-5
Summary of the method: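 BEAS2B cells in RPMI-LHC8, exposed to compound for 1 day at 37 °C (0.5% DMSO final), then resazurin added for a further 4 h. Fluorescence (ex 545/em 590 nm) gives % viability loss vs 0.5% DMSO vehicle; CC50 from concentration-response curve.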

[3] = tested on: Aspergillus fumigatus L98H (TR34/L98H); assay: Broth microdilution assay (modified EUCAST); type: cell-based; settings: Aspergillus fumigatus, read-out: MIC75 against Aspergillus fumigatus isolate L98H
Summary of the method: (§1)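 Spores from 3-day Sabouraud cultures (working suspension 2 × 10^5 spores/mL) were added to an equal volume of RPMI-1640 (2 mM L-glutamine, 0.5% BSA, 2% glucose, 0.165 M MOPS, pH 7) containing compound, in quadruplicate. After 48 hr at 35 °C, OD530 gave percent inhibition. MIC50, MIC75 and MIC90 came from concentration-response curves.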

[4] = tested on: Aspergillus fumigatus NCPF2010; assay: Broth microdilution assay (modified EUCAST); type: cell-based; settings: Aspergillus fumigatus, NCPF2010, read-out: MIC75 against Aspergillus fumigatus isolate NCPF2010
Summary of the method: as §1

[5] = tested on: Aspergillus fumigatus NCPF7099; assay: Broth microdilution assay (modified EUCAST); type: cell-based; settings: Aspergillus fumigatus, NCPF7099, n = 3, read-out: MIC75 against Aspergillus fumigatus isolate NCPF7099
Summary of the method: as §1

[6] = tested on: Aspergillus fumigatus NCPF7100; assay: Broth microdilution assay (modified EUCAST); type: cell-based; settings: Aspergillus fumigatus, NCPF7100, read-out: MIC75 against Aspergillus fumigatus isolate NCPF7100
[7] = tested on: aspergillus fumigatus (ATCC 13073 [strain: NIH 5233]); assay: In vivo anti-fungal activity, prophylactic and therapeutic treatment of infected immunocompromised neutropenic mice; design: species or system A/J mice; settings: for % Inhibition versus Infected Controls, GM in BALF / % Inhibition versus Infected Controls, GM in serum / % Inhibition versus Infected Controls, Lung Fungal Load: prophylactic treatment (days 0, 1, 2 and 3); for % Inhibition versus Infected Control, GM in BALF / % Inhibition versus Infected Control, GM in serum / % Inhibition versus Infected Control, Lung Fungal Load: therapeutic treatment (days 1, 2 and 3)

Row | Structure (SMILES) | MIC50 [1] [µM] | CC50 at 1 day [2] [µM] | MIC [3] [µM] | MIC [4] [µM] | MIC [5] [µM] | MIC [6] [µM] | % Inhibition versus Infected Controls, GM in BALF ([7]; 0.4 mg/mL) [%] | % Inhibition versus Infected Controls, GM in serum ([7]; 0.4 mg/mL) [%] | % Inhibition versus Infected Controls, Lung Fungal Load ([7]; 0.4 mg/mL) [%] | % Inhibition versus Infected Control, GM in BALF ([7]; 0.08 mg/mL) [%] | % Inhibition versus Infected Control, GM in serum ([7]; 0.08 mg/mL) [%] | % Inhibition versus Infected Control, Lung Fungal Load ([7]; 0.08 mg/mL) [%] | % Inhibition versus Infected Control, GM in BALF ([7]; 0.4 mg/mL) [%] | % Inhibition versus Infected Control, GM in serum ([7]; 0.4 mg/mL) [%] | % Inhibition versus Infected Control, Lung Fungal Load ([7]; 0.4 mg/mL) [%] | % Inhibition versus Infected Controls, GM in BALF ([7]; 2 mg/mL) [%] | % Inhibition versus Infected Controls, GM in serum ([7]; 2 mg/mL) [%] | % Inhibition versus Infected Controls, Lung Fungal Load ([7]; 2 mg/mL) [%]
1 | N#Cc1cc(N2CCN(c3ccc(C(=O)Nc4ccc(F)cc4)cc3)CC2)ccc1OC[C@@H]1CO[C@@](Cn2cncn2)(c2ccc(F)cc2F)C1 [Example 4, 4-(4-(4-(((3R,5R)-5-((1H-1,2,4-Triazol-1-yl)Methyl)-5-(2,4-Difluorophenyl) Tetrahydrofuran-3-yl)Methoxy)-3-Cyanophenyl)Piperazin-1-yl)-N-(4-Fluorophenyl) Benzamide] | 0.00777 (≈ 0.00539 µg/mL) | > 14.4 | 0.0737 (≈ 0.0511 µg/mL) | 0.00868 (≈ 0.00602 µg/mL) | 0.0413 (≈ 0.0287 µg/mL) | 0.0383 (≈ 0.0266 µg/mL) | 84 | 90 | 85 |  |  |  |  |  |  |  |  | 
2 | Cc1cc(N2CCN(c3ccc(C(=O)Nc4ccc(C#N)cc4F)cc3)CC2)ccc1OC[C@@H]1CO[C@@](Cn2cncn2)(c2ccc(F)cc2F)C1 [Example 23, 4-(4-(4-(((3R, 5R)-5-((1H-1,2,4-triazol-1-yl)methyl)-5-(2,4-difluorophenyl)tetrahydrofuran-3-yl)methoxy)-3-methylphenyl)piperazin-1-yl)-N-(4-cyano-2-fluorophenyl)benzamide] | 0.00337 (≈ 0.00239 µg/mL) | > 14.1 | 0.0602 (≈ 0.0426 µg/mL) | 0.0126 (≈ 0.00892 µg/mL) | 0.0284 (≈ 0.0201 µg/mL) | 0.0443 (≈ 0.0314 µg/mL) | 71 | 79 | 56 |  |  |  |  |  |  |  |  | 
3 | Cc1nc(N2CCN(c3ccc(C(=O)Nc4ccc(F)cc4)cc3)CC2)ccc1OC[C@@H]1CO[C@@](Cn2cncn2)(c2ccc(F)cc2F)C1 [Example 3, 4-(4-(5-(((3R,5R)-5-((1H-1,2,4-Triazol-1-yl)Methyl)-5-(2,4-Difluorophenyl)Tetra Hydrofuran-3-yl)Methoxy)-6-Methylpyridin-2-yl)Piperazin-1-yl)-N-(4-Fluorophenyl) Benzamide] | 0.0517 (≈ 0.0353 µg/mL) | > 14.6 | 0.033 (≈ 0.0226 µg/mL) | 0.018 (≈ 0.0123 µg/mL) | 0.0276 (≈ 0.0189 µg/mL) | 0.0451 (≈ 0.0308 µg/mL) |  |  |  | 95 | 92 | 98 | 86 | 89 | 96 |  |  | 
4 | O=C(Nc1ccc(F)cc1)c1ccc(N2CCN(c3ccc(OC[C@@H]4CO[C@@](Cn5cncn5)(c5ccc(F)cc5F)C4)c(CO)c3)CC2)cc1 [Example 16, 4-(4-(4-(((3R, 5R)-5-((1H-1,2,4-triazol-1-yl)methyl)-5-(2,4-difluorophenyl)tetrahydrofuran-3-yl)methoxy)-3-hydroxymethylphenyl)piperazin-1-yl)-N-(4-fluorophenyl)benzamide] | 0.00082 (≈ 0.000573 µg/mL) | > 14.3 | 0.0335 (≈ 0.0234 µg/mL) | 0.00512 (≈ 0.00358 µg/mL) | 0.00926 (≈ 0.00647 µg/mL) | 0.00658 (≈ 0.0046 µg/mL) |  |  |  | 76 | 62 | 91 | 88 | 85 | 96 |  |  | 
5 | Cc1cc(N2CCN(c3ccc(C(=O)Nc4ccc(F)cc4)c(C)c3)CC2)ccc1OC[C@@H]1CO[C@@](Cn2cncn2)(c2ccc(F)cc2F)C1 [Example 33, 4-(4-(4-(((3R, 5R)-5-((1H-1,2,4-triazol-1-yl)methyl)-5-(2,4-difluorophenyl)tetrahydrofuran-3-yl)methoxy)-3-methylphenyl)piperazin-1-yl)-N-(4-fluorophenyl)-2-methylbenzamide] | 0.0435 (≈ 0.0303 µg/mL) | > 14.4 | 0.0679 (≈ 0.0473 µg/mL) | 0.0135 (≈ 0.00941 µg/mL) | 0.0489 (≈ 0.0341 µg/mL) | 0.0236 (≈ 0.0164 µg/mL) |  |  |  |  |  |  |  |  |  |  |  | 
6 | Cc1cc(N2CCN(c3ccc(C(=O)Nc4ccc(Cl)cc4F)cc3)CC2)ccc1OC[C@@H]1CO[C@@](Cn2cncn2)(c2ccc(F)cc2F)C1 [Example 29, 4-(4-(4-(((3R, 5R)-5-((1H-1,2,4-triazol-1-yl)methyl)-5-(2,4-difluorophenyl)tetrahydrofuran-3-yl)methoxy)-3-methylphenyl)piperazin-1-yl)-N-(4-chloro-2-fluorophenyl)benzamide] | 0.0145 (≈ 0.0104 µg/mL) | > 13.9 | 0.12 (≈ 0.0861 µg/mL) | 0.0285 (≈ 0.0204 µg/mL) | 0.037 (≈ 0.0265 µg/mL) | 0.0538 (≈ 0.0386 µg/mL) |  |  |  |  |  |  |  |  |  |  |  | 
7 | Cc1cc(N2CCN(c3ccc(C(=O)Nc4ccc(S(N)(=O)=O)cc4)cc3)CC2)ccc1OC[C@@H]1CO[C@@](Cn2cncn2)(c2ccc(F)cc2F)C1 [Example 19, 4-(4-(4-(((3R, 5R)-5-((1H-1,2,4-triazol-1-yl)methyl)-5-(2,4-difluorophenyl)tetrahydrofuran-3-yl)methoxy)-3-methylphenyl)piperazin-1-yl)-N-(4-sulfamoylphenyl)benzamide] | 0.0172 (≈ 0.0128 µg/mL) | > 13.4 | 0.0577 (≈ 0.0429 µg/mL) | 0.0166 (≈ 0.0123 µg/mL) | 0.0089 (≈ 0.00662 µg/mL) | 0.0227 (≈ 0.0169 µg/mL) | 16 | 30 | 62 |  |  |  |  |  |  | 41 | 47 | 74
8 | Cc1cc(N2CCN(c3ccc(C(=O)Nc4ccc(F)cc4)cc3C)CC2)ccc1OC[C@@H]1CO[C@@](Cn2cncn2)(c2ccc(F)cc2F)C1 [Example 32, 4-(4-(4-(((3R,5R)-5-((1H-1,2,4-triazol-1-yl)methyl)-5-(2,4-difluorophenyl)tetrahydrofuran-3-yl)methoxy)-3-methylphenyl)piperazin-1-yl)-N-(4-fluorophenyl)-3-methylbenzamide] | 0.0261 (≈ 0.0182 µg/mL) | > 14.4 | 0.0695 (≈ 0.0484 µg/mL) | 0.0697 (≈ 0.0486 µg/mL) | 0.0481 (≈ 0.0335 µg/mL) | 0.0609 (≈ 0.0424 µg/mL) |  |  |  |  |  |  |  |  |  |  |  | 
9 | Cc1cc(N2CCN(c3ccc(C(=O)Nc4ccc(F)cc4)cc3)CC2)c(C)cc1OC[C@@H]1CO[C@@](Cn2cncn2)(c2ccc(F)cc2F)C1 [Example 5, 4-(4-(4-(((3R,5R)-5-((1H-1,2,4-Triazol-1-yl)Methyl)-5-(2,4-Difluorophenyl) Tetrahydrofuran-3-yl)Methoxy)-2,5-Dimethylphenyl)Piperazin-1-yl)-N-(4-Fluorophenyl) Benzamide] | 0.123 (≈ 0.0857 µg/mL) | > 14.4 | 0.162 (≈ 0.113 µg/mL) | 0.0133 (≈ 0.00927 µg/mL) | 0.157 (≈ 0.109 µg/mL) | 0.0966 (≈ 0.0673 µg/mL) |  |  |  |  |  |  |  |  |  |  |  | 
10 | N#Cc1ccc(NC(=O)c2ccc(N3CCN(c4ccc(OCC5CO[C@@](Cn6cncn6)(c6ccc(F)cc6F)C5)c(Cl)c4)CC3)cc2)cc1 (stereo in doubt) [Example 10, 4-(4-(4-(((3R,5R)-5-((1H-1,2,4-triazol-1-yl)methyl)-5-(2,4-difluorophenyl)tetrahydrofuran-3-yl)methoxy)-3-chlorophenyl)piperazin-1-yl)-N-(4-cyanophenyl)benzamide] | 0.0145 (≈ 0.0103 µg/mL) | > 14.1 | 0.0812 (≈ 0.0577 µg/mL) | 0.022 (≈ 0.0156 µg/mL) | 0.00996 (≈ 0.00707 µg/mL) | 0.0295 (≈ 0.021 µg/mL) |  |  |  |  |  |  |  |  |  |  |  | 
